Data reported in patent US6995243B2, “Antibodies that recognize and bind phosphorylated human glucocorticoid receptor and methods of using same” (New York University, priority 2002, dated 2006).
Entries after “also recorded” stand apart in the source; their conditions may differ.

Experiments:
total GR = total GR (Homo sapiens, UniProt P04150); conditions: 12 h continuous hormone treatment, 100 nM
Method: FIGS. 7A–7C are immunoblots and graph showing the kinetics of S203 and S211 phosphorylation in response to Dex treatment. U2OS-hGR cells were treated with ethanol (−) or Dex (100 nM) for the time indicated. Whole cell lysates were prepared, normalized and analyzed by immunoblotting with phospho-S203, phospho-S211 or HA antibodies. Immunoblot images of GR phosphorylated at S203 and S211 in the first hour of Dex treatment (FIG. 7A) or throughout 12 h of continuous Dex treatment (FIG. 7B); the total GR in each sample was determined by immunoblotting for HA. In FIG. 7C, quantitative analysis of immunoblot results in panel B normalized to total GR detected by HA. The data shown are from a single experiment that is representative of at least three independent experiments. […]
Cell extracts or immunoprecipitates containing GR were separated by 10% SDS-polyacrylamide gel electrophoresis (PAGE) and were transferred to Immobilon paper (Millipore Corp., Bedford, Mass.) at 110V for 80 min in Tris-Glycine transfer buffer. […] Endogenous GR was detected using the N499 polyclonal antibody, raised against residues 1–499 of the human GR. […] Quantitative analysis of immunoblots was performed using the NIH image software package (version 1.62).

[1] = molecular target: T1, human GR phosphorylated at S211 (Homo sapiens, UniProt P04150); assay: Immunoblot of GR S211 phosphorylation in U2OS-hGR cell extracts; format: cell-based; conditions: 1 h; for GR phosphorylation at S211: ligand 100 nM, U2OS-hGR cells
T1 construct: expressed in transfected cells
T1 sequence (P04150 1-777): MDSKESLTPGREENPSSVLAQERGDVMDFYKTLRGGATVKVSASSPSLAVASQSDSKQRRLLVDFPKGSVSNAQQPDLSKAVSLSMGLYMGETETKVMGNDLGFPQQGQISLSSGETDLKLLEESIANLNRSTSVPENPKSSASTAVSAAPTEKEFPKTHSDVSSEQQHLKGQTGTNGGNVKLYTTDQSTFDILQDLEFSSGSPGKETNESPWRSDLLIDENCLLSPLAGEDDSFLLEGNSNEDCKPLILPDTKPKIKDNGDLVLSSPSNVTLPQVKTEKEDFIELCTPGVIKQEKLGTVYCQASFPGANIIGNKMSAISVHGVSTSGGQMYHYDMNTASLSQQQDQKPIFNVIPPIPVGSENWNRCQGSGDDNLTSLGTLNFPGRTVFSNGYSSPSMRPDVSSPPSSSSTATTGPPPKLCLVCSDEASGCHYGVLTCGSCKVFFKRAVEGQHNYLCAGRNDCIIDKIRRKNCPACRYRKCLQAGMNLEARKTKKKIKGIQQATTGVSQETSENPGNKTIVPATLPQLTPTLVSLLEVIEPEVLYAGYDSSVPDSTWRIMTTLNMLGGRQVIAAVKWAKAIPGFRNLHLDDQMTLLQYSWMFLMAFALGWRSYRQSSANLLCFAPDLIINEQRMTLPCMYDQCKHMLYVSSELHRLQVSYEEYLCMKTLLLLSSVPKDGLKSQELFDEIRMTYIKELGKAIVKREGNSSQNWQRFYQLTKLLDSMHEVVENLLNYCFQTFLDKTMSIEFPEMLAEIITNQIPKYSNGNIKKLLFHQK
Method: In FIG. 6A, U20S-hGR were treated with ethanol (−) or the ligands indicated (100 nM) for 1 hour and whole cell extracts were prepared. For antagonism experiments, a 10-fold excess of RU486 (1 μM) or ZK299 (1 μM) were added simultaneously with 100 nM Dex for 1 h prior to cell lysis. Equal amounts of protein from each treatment were analyzed by immunoblotting with either phospho-S203, phospho-S211 or HA antibodies, reflective of the amount of total GR present in each lane.
Cells were placed on ice, washed twice in phosphate-buffer saline (PBS), lysed in 0.5 ml of buffer containing 50 mM HEPES, pH 7.5, 150 mM NaCl, 1 mM EDTA, 1 mM EGTA, 1 mM NaF, 1% Triton X-100, 10% glycerol and additional protease and phosphatase inhibitors: 1 mM PMSF, 20 mM β-glycerophosphate, 8 mM sodium pyrophosphate, 1 μg/ml leupeptin, pepstatin A and aprotinin (Roche). […] The soluble supernatants were normalized for total protein concentration using the Bio-Rad protein assay (Bio-Rad Laboratories, Hercules, Calif.) and the samples were boiled for 3 min in 2×SDS sample buffer and stored at −20° C.
Cell extracts or immunoprecipitates containing GR were separated by 10% SDS-polyacrylamide gel electrophoresis (PAGE) and were transferred to Immobilon paper (Millipore Corp., Bedford, Mass.) at 110V for 80 min in Tris-Glycine transfer buffer. The membranes were blocked overnight in 5% bovine serum albumin (BSA) in Tris-buffered saline, pH 7.4 (TBS) (blocking solution) at 4° C., then were incubated in the blocking buffer with primary antibody at room temperature (RT) for 2–4 h using 1:1,000 and 1:10,000 dilution of serum for phospho-S211 (Ab353) and phospho-S203 (Ab211), respectively. […] The membranes were washed three times for 10 min in TBS/0.1% Triton X-100 and twice in TBS and incubated for 1 h at RT with 0.2 μg/ml protein A conjugated to horseradish peroxidase (HRP) (Kirkegaard and Perry Laboratories, Gaithersburg, Md.). For blots using the anti-HA-tag monoclonal antibody (α-HA; Roche), an HRP-conjugated goat-anti-mouse IgG secondary antibody was used. Blots were then washed three times for 10 min in TBS-0.1% Triton X-100, twice in TBS and developed using enhanced chemiluminescence (ECL) according to manufacturer's instructions (Amersham Pharmacia Biotech Inc., Piscataway, N.J.).

[2] = tested on: GR-mediated transcriptional activation; assay: MMTV-luciferase reporter GR transcriptional activation in U2OS-hGR cells; format: cell-based, human; conditions: ligand 100 nM, 1 h
Method: In FIG. 6B, U2OS-hGR cells were transiently transfected with the MMTV-luciferase reporter construct along with pCMV-lacZ as an internal control. After 16 h, the cells were treated with ligands indicated (100 nM) for 1 h, conditions identical to those used for the immunoblot analysis, and luciferase activity determined.

[3] = molecular target: T2, human GR phosphorylated at S203 (Homo sapiens, UniProt P04150); conditions: ligand 100 nM, 1 h, U2OS-hGR cells
T2 sequence (P04150 1-777): T1 sequence (P04150 1-777)
Method: In FIG. 6A, U20S-hGR were treated with ethanol (−) or the ligands indicated (100 nM) for 1 hour and whole cell extracts were prepared. For antagonism experiments, a 10-fold excess of RU486 (1 μM) or ZK299 (1 μM) were added simultaneously with 100 nM Dex for 1 h prior to cell lysis. Equal amounts of protein from each treatment were analyzed by immunoblotting with either phospho-S203, phospho-S211 or HA antibodies, reflective of the amount of total GR present in each lane. In FIG. 6B, U2OS-hGR cells were transiently transfected with the MMTV-luciferase reporter construct along with pCMV-lacZ as an internal control. After 16 h, the cells were treated with ligands indicated (100 nM) for 1 h, conditions identical to those used for the immunoblot analysis, and luciferase activity determined.
Cells were placed on ice, washed twice in phosphate-buffer saline (PBS), lysed in 0.5 ml of buffer containing 50 mM HEPES, pH 7.5, 150 mM NaCl, 1 mM EDTA, 1 mM EGTA, 1 mM NaF, 1% Triton X-100, 10% glycerol and additional protease and phosphatase inhibitors: 1 mM PMSF, 20 mM β-glycerophosphate, 8 mM sodium pyrophosphate, 1 μg/ml leupeptin, pepstatin A and aprotinin (Roche). Lysates were centrifuged at 12,000 rpm for 15 min at 4° C. […]

GR = molecular target: T3, GR (Homo sapiens, UniProt P04150); conditions: cited from earlier work
T3 sequence (P04150 1-777): T1 sequence (P04150 1-777)

C[C@@H]1C[C@H]2[C@@H]3CCC4=CC(=O)C=C[C@]4(C)[C@@]3(F)[C@@H](O)C[C@]2(C)[C@@]1(O)C(=O)CO [Dex, dexamethasone]
Reduction of total GR (total GR): ~80%

C[C@]12C=CC(=O)C=C1CC[C@@H]1[C@@H]2[C@@H](O)C[C@@]2(C)[C@H]1CC[C@]2(O)C(=O)CO [Prednisolone]
GR phosphorylation at S211 [1]: promoted S211 phosphorylation; also recorded: induced robust GR phosphorylation at S211
GR transcriptional activation (MMTV-luciferase) [2]: pattern mirrored in the GR transcriptional activation assay

CN(C)c1ccc([C@H]2C[C@]3(C)[C@@H](CC[C@]3(O)CCCO)[C@@H]3CCC4=CC(=O)CCC4=C32)cc1 [ZK299]
Blocking of Dex-dependent GR phosphorylation ([1]; 10-fold molar excess (1 μM) added with 100 nM Dex): not as effective
GR phosphorylation at S211 [1]: almost no effect
GR phosphorylation at S203 [3]: almost no effect

C=C1[C@@H](O)[C@@H]2O[C@]3(CC[C@H](/C=C/[C@@H](C)[C@@H]4CC(C)=C[C@@]5(O[C@H](C[C@@](C)(O)C(=O)O)CC[C@H]5O)O4)O3)CC[C@H]2O[C@@H]1[C@@H](O)C[C@H](C)[C@H]1O[C@@]2(CCCCO2)CC[C@H]1C [okadaic acid]
Effect on GR reported in the literature (GR): results in GR hyperphosphorylation
